{"source": "patent US20210267948A1", "about": "“TREATMENT OF CANCER” (CITY OF HOPE, priority 2017, published 2021)", "key": {"[1]": {"system": "HCC1937+BRCA1", "experiment": "Cytotoxicity assay, HCC1937+BRCA1", "type": "cell-based, human", "details": "10 μM, 72 h", "procedure": "All cell lines were acquired from the American Type Culture Collection (Manassas, Va., USA). Cells were maintained in RPMI 1640 medium (Mediatech) with 10% fetal bovine serum, 2 mM glutamine, and 100 U of penicillin and 100 μg of streptomycin per ml of medium (Sigma) at 37° C. in 5% CO2. To isolate HCC1937+BRCA1 cells, parental HCC1937 cells were transfected with pcDNA3.1 plasmid expressing full-length BRCA1 cDNA. Stable transfectant clones were selected and used for drug sensitivity assays. For stable transfection, cells at 30-40% confluence were incubated overnight with […] of plasmid DNA, using FUGENE® 6 transfectin reagent (Roche Molecular Biochemical, Monza, Italy) according to the manufacturer's instructions. Cells were then selected in puromycin (1 μg/ml) (Invitrogen Life Technologies, La Jolla, Calif., USA). After 20 to 30 days, viable puromycin-resistant colonies from HCC1937 transfections were expanded and screened. The clones that stably expressed puromycin and retained growth potential were assayed for BRCA1 expression by Western blot analysis. The restoration of BRCA1 expression in the puromycin-resistant cDNA/transfectant cells was evaluated by Western blot analysis.\nThe MTT cytotoxicity assay was performed by incubating with MTT and monitoring the MTT formazan formed by viable cells with a microplate reader at a wavelength of 560 nm; the survival ratio was determined using the formula: (Atest−Ablank)/(Acontrol−Ablank)×100%. The cytotoxicity was determined in 96-well plates using the semiautomatic fluorescence-based Digital Imaging Microscopy System (DIMSCAN). DIMSCAN uses digital imaging microscopy to quantify viable cells, which selectively accumulate FDA (fluorescein diacetate; Alfa Aesar, Ward Hill, Mass.). DIMSCAN is capable of measuring cytotoxicity over a 4 log dynamic range by quantifying total fluorescence per well (which is proportional to the number of viable cells) after elimination of the background fluorescence by digital thresholding and eosin Y (Mallinckrodt Baker, Center Valley, Pa.) quenching. […]"}, "[2]": {"target": "T1, ribonucleotide reductase (Homo sapiens, UniProt P31350)", "T1 construct": "from tissue; host or cells: MOLT-4 subcutaneous tumour xenografts from mice dosed orally with COH29", "T1 sequence (P31350 whole entry)": "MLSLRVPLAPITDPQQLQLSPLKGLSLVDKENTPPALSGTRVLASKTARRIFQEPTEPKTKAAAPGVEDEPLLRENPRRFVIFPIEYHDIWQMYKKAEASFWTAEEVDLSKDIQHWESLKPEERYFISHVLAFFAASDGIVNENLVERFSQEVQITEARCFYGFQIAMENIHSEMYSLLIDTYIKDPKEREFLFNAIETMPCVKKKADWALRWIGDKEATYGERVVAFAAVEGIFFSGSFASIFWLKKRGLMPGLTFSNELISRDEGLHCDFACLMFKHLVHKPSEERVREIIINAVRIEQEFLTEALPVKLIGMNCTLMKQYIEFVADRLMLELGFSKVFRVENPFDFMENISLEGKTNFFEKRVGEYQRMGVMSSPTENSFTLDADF", "experiment": "RNR activity and dNTP pools in MOLT-4 tumor xenografts", "type": "in vivo, mouse", "details": "MOLT-4 xenografts", "procedure": "FIGS. 12A-12D depict the activity of COH29 in mouse xenografts. Cancer cells were implanted and allowed to grow at the subcutaneous site until the tumor was measurable. Subcutaneous xenograft growth curves for leukemic-(MOLT-4) mice treated for 12 days with oral COH29 in twice-daily dosing at 50 and 100 mg/kg (FIG. 12A) and for ovarian cancer bearing mice (TOV112D) treated for 7 days with 200, 300, or 400 mg/kg of oral COH29 (FIG. 12B) (shown are the average±SDs for 4 animals/group). FIG. 12C depicts the activity of RNR in MOLT-4 tumor xenografts from mice treated with vehicle (solutol-15) or 100 mg/kg of oral COH29 for 12 days. FIG. 12D depicts the effect of oral COH29 on intratumoral dTNP pools from MOLT-4 tumor xenografts."}}}
{"smiles": "O=C(Nc1nc(-c2ccc(O)c(O)c2)c(-c2ccccc2)s1)c1ccc(O)c(O)c1", "note": "[COH29, N-(4-(3,4-dihydroxyphenyl)-5-phenylthiazol-2-yl)-3,4-dihydroxybenzamide]", "values": [{"measurement": "cells survived", "setting": "[1]; HCC1937+BRCA1 transfected with BRCA1 siRNA", "result": 53, "unit": "%"}, {"measurement": "cells survived", "setting": "[1]; HCC1937+BRCA1 transfected with control siRNA", "result": 72, "unit": "%"}, {"measurement": "tumor ribonucleotide reductase activity", "setting": "[2]; 100 mg/kg oral, 12 days", "result": "reduced"}, {"measurement": "intratumoral dNTF pools", "setting": "[2]; oral COH29", "result": "decrease"}]}
